Measurements reported in article PMC8706783 (Pharmaceutics, 2021).

Tests used:
CYP2C8 = target: T1, CYP2C8 (Homo sapiens, UniProt P10632); assay: Enzyme inhibition assay, CYP2C8; type: in vitro ADME
T1 construct: tissue Xenotech LLC; host or cells: human liver microsomes, mixed-gender 50 donor pool

UGT1A3 = target: T2, UGT1A3 (Homo sapiens, UniProt P35503); assay: Enzyme inhibition assay, UGT1A3; type: in vitro ADME; set-up: from tissue; conditions: HLM; UGT1A3 chenodeoxycholic acid 24 O-glucuronidation
T2 sequence (P35503 29-534): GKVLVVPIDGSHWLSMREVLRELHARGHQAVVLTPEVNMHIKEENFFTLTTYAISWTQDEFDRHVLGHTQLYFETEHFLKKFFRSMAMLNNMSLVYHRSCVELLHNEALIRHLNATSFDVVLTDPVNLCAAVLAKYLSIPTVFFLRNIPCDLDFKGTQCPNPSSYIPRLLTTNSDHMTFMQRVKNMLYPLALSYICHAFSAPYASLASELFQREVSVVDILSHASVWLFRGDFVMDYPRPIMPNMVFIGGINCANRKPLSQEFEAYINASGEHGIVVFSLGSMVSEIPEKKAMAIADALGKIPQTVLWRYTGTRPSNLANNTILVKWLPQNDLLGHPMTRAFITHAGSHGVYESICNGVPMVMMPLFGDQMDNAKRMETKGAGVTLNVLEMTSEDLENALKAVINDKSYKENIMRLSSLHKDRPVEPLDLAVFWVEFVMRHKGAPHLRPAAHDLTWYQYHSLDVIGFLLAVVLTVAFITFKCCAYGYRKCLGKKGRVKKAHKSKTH

CYP2B6 mRNA = test system: CYP2B6 mRNA; set-up: method as in PMID 23965226; conditions: 10 μM DPV, colorectal tissue from three human donors; cited from earlier work
HLM (Phase 2) = assay: Reaction phenotyping, HLM with UDPGA; conditions: HLM (Phase 2)
CYP2C19 = CYP2C19 (Homo sapiens, UniProt P33261); assay: Enzyme inhibition assay, CYP2C19
CYP1B1 = target: T3, CYP1B1 (Homo sapiens, UniProt Q16678); assay: Enzyme inhibition assay, CYP1B1; type: in vitro ADME; conditions: Recombinant CYP1B1; 7-ethoxyresorufin O-deethylation
T3 construct: purchased Corning Inc

UGT1A7 = target: T4, UGT1A7 (Homo sapiens, UniProt Q9HAW7); assay: Enzyme inhibition assay, UGT1A7
T4 sequence (Q9HAW7 26-530): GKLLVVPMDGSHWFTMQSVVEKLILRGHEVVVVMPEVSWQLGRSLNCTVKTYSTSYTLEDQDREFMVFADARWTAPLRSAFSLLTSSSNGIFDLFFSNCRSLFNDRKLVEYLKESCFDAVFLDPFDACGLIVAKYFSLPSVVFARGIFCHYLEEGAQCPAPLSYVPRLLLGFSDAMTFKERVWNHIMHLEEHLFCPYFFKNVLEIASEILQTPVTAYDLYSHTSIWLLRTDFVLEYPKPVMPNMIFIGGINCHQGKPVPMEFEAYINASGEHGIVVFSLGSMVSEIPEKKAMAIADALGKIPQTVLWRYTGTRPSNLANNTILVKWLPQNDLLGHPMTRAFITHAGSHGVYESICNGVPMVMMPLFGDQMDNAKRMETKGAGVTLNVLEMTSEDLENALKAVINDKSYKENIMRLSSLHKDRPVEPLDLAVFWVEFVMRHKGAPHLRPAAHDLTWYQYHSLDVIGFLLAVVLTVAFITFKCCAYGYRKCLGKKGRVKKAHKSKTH

[1] = test system: primary human hepatocytes; assay: Cytotoxicity in CYP induction studies; type: cell-based; conditions: 303 nM (100 ng/mL) in primary human hepatocytes
CYP1A1 = target: T5, CYP1A1 (Homo sapiens, UniProt P04798); assay: Enzyme inhibition assay, CYP1A1; type: in vitro ADME; set-up: purchased Xenotech LLC; conditions: Recombinant CYP1A1; phenacetin-O-deethylation
T5 sequence (P04798 1-512): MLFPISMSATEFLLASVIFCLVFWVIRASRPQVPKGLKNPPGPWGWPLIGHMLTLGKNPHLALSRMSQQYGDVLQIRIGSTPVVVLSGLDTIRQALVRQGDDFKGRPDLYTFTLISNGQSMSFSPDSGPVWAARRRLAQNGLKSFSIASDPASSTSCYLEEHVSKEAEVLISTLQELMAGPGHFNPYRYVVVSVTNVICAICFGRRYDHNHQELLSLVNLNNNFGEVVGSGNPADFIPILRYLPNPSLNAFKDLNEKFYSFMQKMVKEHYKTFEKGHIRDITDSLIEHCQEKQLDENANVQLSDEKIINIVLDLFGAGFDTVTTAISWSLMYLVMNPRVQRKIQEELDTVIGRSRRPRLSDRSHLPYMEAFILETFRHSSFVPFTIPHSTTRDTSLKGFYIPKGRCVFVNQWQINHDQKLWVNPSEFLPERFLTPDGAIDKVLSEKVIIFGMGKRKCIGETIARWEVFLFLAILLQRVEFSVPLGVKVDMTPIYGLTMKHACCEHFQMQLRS

UGT1A9 = target: T6, UGT1A9 (Homo sapiens, UniProt O60656); assay: Enzyme inhibition assay, UGT1A9; type: in vitro ADME; set-up: from tissue; conditions: HLM; UGT1A9 mycophenolic acid glucuronidation
T6 sequence (O60656 26-530): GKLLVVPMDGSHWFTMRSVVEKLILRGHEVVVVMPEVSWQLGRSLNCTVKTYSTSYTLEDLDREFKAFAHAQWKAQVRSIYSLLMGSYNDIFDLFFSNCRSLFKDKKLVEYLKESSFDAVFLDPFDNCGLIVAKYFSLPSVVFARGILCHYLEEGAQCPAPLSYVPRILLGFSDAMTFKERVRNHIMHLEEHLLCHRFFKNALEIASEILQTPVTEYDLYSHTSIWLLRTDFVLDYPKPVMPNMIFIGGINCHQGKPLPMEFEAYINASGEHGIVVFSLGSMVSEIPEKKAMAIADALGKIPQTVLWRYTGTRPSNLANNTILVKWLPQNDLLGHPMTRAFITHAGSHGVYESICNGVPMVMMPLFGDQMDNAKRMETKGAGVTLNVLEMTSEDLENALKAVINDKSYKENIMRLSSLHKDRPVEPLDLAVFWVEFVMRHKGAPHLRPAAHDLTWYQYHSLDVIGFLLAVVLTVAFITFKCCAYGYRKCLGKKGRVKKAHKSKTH

T3 sequence (Q16678 whole entry): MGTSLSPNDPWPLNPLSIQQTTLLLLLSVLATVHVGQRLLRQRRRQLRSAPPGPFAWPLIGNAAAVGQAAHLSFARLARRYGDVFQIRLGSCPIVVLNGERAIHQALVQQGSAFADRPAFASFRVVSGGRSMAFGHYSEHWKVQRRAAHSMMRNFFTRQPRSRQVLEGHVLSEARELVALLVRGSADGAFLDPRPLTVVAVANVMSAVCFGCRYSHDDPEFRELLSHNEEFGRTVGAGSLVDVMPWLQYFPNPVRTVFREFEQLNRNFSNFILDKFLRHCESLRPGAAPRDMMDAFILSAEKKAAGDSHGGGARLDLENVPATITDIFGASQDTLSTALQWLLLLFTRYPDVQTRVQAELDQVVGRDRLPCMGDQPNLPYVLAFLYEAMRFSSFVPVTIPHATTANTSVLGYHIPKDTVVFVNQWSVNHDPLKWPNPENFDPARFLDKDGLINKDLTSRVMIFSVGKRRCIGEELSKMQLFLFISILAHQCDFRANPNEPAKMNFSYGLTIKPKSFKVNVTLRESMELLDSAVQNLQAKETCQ
T1 sequence (P10632 whole entry): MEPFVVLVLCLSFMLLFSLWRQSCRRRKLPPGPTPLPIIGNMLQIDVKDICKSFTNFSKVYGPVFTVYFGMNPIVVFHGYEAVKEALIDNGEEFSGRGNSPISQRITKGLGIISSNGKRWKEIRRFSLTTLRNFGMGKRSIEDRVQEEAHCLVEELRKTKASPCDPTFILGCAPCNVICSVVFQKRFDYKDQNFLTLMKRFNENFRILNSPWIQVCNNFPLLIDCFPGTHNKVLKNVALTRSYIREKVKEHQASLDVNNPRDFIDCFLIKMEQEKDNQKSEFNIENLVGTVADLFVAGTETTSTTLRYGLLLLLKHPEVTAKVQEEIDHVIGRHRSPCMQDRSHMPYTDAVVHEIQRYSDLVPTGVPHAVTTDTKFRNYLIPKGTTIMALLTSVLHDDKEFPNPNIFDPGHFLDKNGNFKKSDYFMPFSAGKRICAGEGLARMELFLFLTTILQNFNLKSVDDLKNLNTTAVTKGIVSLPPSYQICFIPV
Chain of CYP2C19 (P33261 whole entry): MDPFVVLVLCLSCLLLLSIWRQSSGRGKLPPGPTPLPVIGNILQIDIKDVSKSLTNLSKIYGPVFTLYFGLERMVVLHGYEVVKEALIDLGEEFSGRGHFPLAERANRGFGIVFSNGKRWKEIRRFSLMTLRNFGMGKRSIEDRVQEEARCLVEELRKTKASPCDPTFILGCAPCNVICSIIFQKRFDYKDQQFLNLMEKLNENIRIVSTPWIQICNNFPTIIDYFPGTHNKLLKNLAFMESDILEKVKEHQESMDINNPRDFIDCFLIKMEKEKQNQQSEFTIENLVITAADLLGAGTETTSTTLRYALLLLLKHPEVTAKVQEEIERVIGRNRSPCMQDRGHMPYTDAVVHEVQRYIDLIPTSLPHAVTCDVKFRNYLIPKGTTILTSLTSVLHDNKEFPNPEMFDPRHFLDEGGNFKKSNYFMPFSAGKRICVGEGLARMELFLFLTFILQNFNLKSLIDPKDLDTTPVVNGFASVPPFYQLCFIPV

SMILES | IC50 (CYP2C8) | IC50 (UGT1A3) | CYP2B6 mRNA change (CYP2B6 mRNA) | % DPV Remaining at 60 min without MIC (HLM (Phase 2); 10 μM DPV) | % DPV Remaining at 60 min with MIC (HLM (Phase 2); 10 μM DPV and 30 μM MIC) | IC50 (CYP2C19) | IC50 (CYP1B1) | IC50 (UGT1A7) | cytotoxicity [1] | IC50 (CYP1A1) | IC50 (UGT1A9)
Cc1cc(C)c(Nc2ccnc(Nc3ccc(C#N)cc3)n2)c(C)c1 [DPV, Dapivirine] | 1.41 µM | 17 µM | inhibition in one donor | 97.15% | 95.59% | > 30 µM | 1.55 µM | 24.2 µM | no cytotoxicity observed | 0.5 µM | > 30 µM
Clc1ccc(COC(Cn2ccnc2)c2ccc(Cl)cc2Cl)c(Cl)c1 (stereo not shown) [MIC, miconazole] |  | 13.6 µM |  |  |  |  | 0.47 µM | > 30 µM |  | 0.43 µM | > 30 µM
